According to US20090028925A1, “Novel Phosphinic Acid-Containing Thyromimetics” (priority 2005, published 2009):

Legend:
[1] = Tissue distribution and pharmacokinetics following IP administration to normal rats; assay type: in vivo, SD rats; settings: 10 mg/kg IP
Source text: At pre-selected time points following dosing, the rats were anesthetized using iso-fluorane and the peritoneal cavity was then opened and a blood sample was obtained from the abdominal vena cava. In addition, liver, kidney, and heart were excised and immersed in 3 volumes of cold 60% acetonitrile. The blood samples were briefly centrifuged and the plasma fraction was then extracted with 1.5 volumes of methanol, processed, and analyzed by LC-UV as described in Example G. The frozen liver, kidney, and heart tissue were homogenized in 60% v/v acetonitrile, centrifuged, and then analyzed by LC-UV. Pharmacokinetic parameters and AUC of the plasma and tissue concentration-time profiles were determined noncompartmentally by WinNonLin.

[2] = molecular target: T1, human thyroid hormone receptors TRα1 (Homo sapiens, UniProt P10827); test: Receptor binding to TRα1 (gel filtration and scintillation proximity assay, labeled T3); settings: SPA data; read-out: Ki TRα
T1 construct: made in house; host or cells: Sf9 insect cells (baculovirus)
T1 sequence (P10827 1-410 isoform P10827-2): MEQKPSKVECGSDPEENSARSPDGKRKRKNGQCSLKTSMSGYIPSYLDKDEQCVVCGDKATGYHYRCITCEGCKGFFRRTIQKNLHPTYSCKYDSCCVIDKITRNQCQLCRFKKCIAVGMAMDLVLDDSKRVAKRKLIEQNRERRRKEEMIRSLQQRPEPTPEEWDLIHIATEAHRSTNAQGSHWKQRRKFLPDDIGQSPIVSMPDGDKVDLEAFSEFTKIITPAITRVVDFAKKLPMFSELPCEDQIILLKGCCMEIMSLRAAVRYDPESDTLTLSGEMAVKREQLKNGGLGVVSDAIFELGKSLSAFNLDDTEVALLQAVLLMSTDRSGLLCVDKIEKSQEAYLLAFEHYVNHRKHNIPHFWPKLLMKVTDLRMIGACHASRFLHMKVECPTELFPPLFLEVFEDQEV
T1 sequence (P19793 1-462 partner): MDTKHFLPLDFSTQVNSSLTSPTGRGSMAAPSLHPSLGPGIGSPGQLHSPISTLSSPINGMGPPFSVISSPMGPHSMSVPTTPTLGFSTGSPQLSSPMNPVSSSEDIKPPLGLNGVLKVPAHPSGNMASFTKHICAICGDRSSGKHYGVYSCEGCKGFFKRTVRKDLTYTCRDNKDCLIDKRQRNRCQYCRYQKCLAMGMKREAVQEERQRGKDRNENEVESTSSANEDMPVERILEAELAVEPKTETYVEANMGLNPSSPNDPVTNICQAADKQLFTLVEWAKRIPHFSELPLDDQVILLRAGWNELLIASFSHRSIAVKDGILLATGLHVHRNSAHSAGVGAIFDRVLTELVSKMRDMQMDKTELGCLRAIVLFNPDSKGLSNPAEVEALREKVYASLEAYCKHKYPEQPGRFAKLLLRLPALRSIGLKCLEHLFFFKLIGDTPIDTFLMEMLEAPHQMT

plasma cholesterol = test: Cholesterol lowering in hypercholesterolemic rats; assay type: in vivo
[3] = system: thyroid stimulating hormone (TSH); test: Circulating TSH in rats (cholesterol-fed, ZDF); assay type: in vivo; settings: ZDF rats, 50 mg/kg/d for 28 days
Procedure: Methods: mGPDH activity was analyzed in isolated mitochondria using 2-(4-iodophenyl)-3-(4-nitrophenyl)-5-phenyl tetrazolium chloride as the terminal electron acceptor (Gardner R S, Analytical Biochemistry 59:272 (1974)). Commercially available GPDH was used in each assay as a standard (Sigma, St. Louis, Mo.). Changes in levels of mRNA for liver and heart genes are analyzed using reverse transcriptase followed by real-time PCR analysis. The analysis is performed using an iCycler instrument (Biorad) and appropriate primers by means of standard methodology [e.g., Schwab D A et al. (2000) Life Sciences 66: 1683-94]. The amounts of mRNA are normalized to an internal control, typically, cyclophilin. Serum TSH is measured using an enzyme immunoassay (EIA) kit designed for rat TSH (Amersham Pharmacia Biotech, Arlington Heights, Ill.).
Another concern with synthetic thyromimetics is the suppression of the endogenous thyroid axis. Thyroid homeostasis is maintained by the action of thyroid releasing hormone (TRH) and thyroid stimulating hormone (TSH). […] Although this particular side effect has been noted, it has typically been treated with less concern than the cardiac safety issues. […] Therefore previous investigators have measured TSH levels when testing synthetic thyromimetics and have used a 30% decrease of TSH as the denominator in their therapeutic index calculations. […] Therefore, both compounds suppress TSH as doses lower than that required to decrease circulating cholesterol. […] However, 0.2 mg/kg/d of Compound 18 in 28 day treated ZDF rats, decreased TSH levels greater than 90%.

liver triglycerides = test: Hepatic triglyceride content in normal rats, chronic infusion; assay type: in vivo; settings: normal rats chronically infused for 7 days
Procedure: Normal rats were chronically infused with Compound 7 for 7 days. Liver triglycerides were analyzed following lipid extraction by the Bligh Dyer method (Bligh E G and Dyer W J, A rapid method of total lipid extraction and purification. Can J Med. Sci. 1959 (August); 37(8):911-7, incorporated herein by reference). Total triglycerides were analyzed in the liver extracts by an enzymatic assay (Thermo Electron Corporation). Total lipid was normalized to initial liver weight and triglyceride content was normalized to liver weight. […] There was a 4% reduction in liver triglycerides for this group and the results were not statistically significant.

In the case of Cc1cc(OCP(=O)(O)O)cc(C)c1Cc1ccc(O)c(C(C)C)c1 [Compound 7, [3,5-dimethyl-4-(4′-hydroxy-3′-iso-propylbenzyl)phenoxy]methylphosphonic acid], the “Heart AUC” value [1] is reported as 32.8 nmol·h/g, the “Kidney AUC” value [1] is reported as 5.0 nmol·h/g and the “Liver AUC” value [1] is reported as 301.7 nmol·h/g. For the same compound, the AUC ([1]; male, SD, rat, plasma) was 31600 ng·h/mL, the Cmax ([1]; male, SD, rat, plasma) was 26000 ng/mL and the Tmax ([1]; male, SD, rat, plasma) was 20 min. The CL/F ([1]; male, SD, rat, plasma, read-out: Cl(observed)/F (converted)) was 5.01 mL/min/kg, the Vd/F ([1]; male, SD, rat, plasma, read-out: Vz(observed)/F) was 0.401 L/kg and the AUMClast ([1]; plasma) was 33.7098 μg * hr^2/mL. For the same compound, the Tlast ([1]; plasma) was 4 h, the Ki [2] was 58 nM and the change in vivo at 0.2 mg/kg/day (plasma cholesterol; Rattus norvegicus, ip, delivered i.p (0.2 mg/kg/d), percentage change from pre-dose cholesterol, read-out: % Cholesterol Lowering) was -41.5%. The “efficacy in lowering cholesterol” value (plasma cholesterol; another experiment, hypercholesterolemic rats) was “efficacious”, the TSH versus vehicle [3] was “no statistically significant difference from vehicle” and the “reduction in liver triglycerides” value (liver triglycerides) was 64%.
